Test results reported in US10093694B2, “Compounds for treating eye disorders or diseases” (Guangzhou KangRui Biological Pharmaceutical Technology Co, …, priority 2016, dated 2018).

Assays:
mouse lenses (cataract) = test: Cataract studies: dissected mouse cataract lenses incubated with compound, scored for clarity; conditions: incubated with compound at the indicated concentrations for 4 hours at room temperature, PBS negative control showed no lens opacity change
Procedure: (§1) FIGS. 14A and 14B show cataract lenses that have been treated with Compound 1. FIG. 14A show mouse lenses (white) that were dissected from the eye and placed into phosphate buffered saline solution (PBS) overnight at 4° C. Cataract was visible in all lenses. The cataract lenses were incubated with Compound 1 at the indicated concentration for 4 hours at room temperature and then scored for clarity. […] The PBS solution served as negative control and there were no lens opacity change.
as §1, with “15A” for “14A”, “15B” for “14B”, “2.” for “1.”, “2” for “1”

mouse eyes (cataract) = test: Cataract studies: mouse eyes treated with eye drop solution; type: in vivo; conditions: eye drop solution 100 μM, three times a day, 50 μl each time, 6 weeks, versus negative control
Procedure: FIGS. 16A and 16B show the result of mouse eyes treated with an eye drop solution containing Compound 1 at 100 μM concentration three times a day for 50 μl each time for 6 weeks.

Row | SMILES | lens clarity / cataract after treatment (mouse lenses (cataract)) | clarity / cataract of treated eye (mouse eyes (cataract))
1 | C[C@H](CCC(Br)C(C)(C)O)[C@H]1CC[C@@]2(C)C3=C(CC[C@]12C)[C@@]1(C)CC[C@H](O)C(C)(C)[C@@H]1CC3 (stereo partly drawn) [Compound 1, (3S,5R,10S,13R,14R,17R)-17-((2R)-5-bromo-6-hydroxy-6-methylheptan-2-yl)-4,4,10,13,14-pentamethyl-2,3,4,5,6,7,10,11,12,13,14,15,16,17-tetradecahydro-1H-cyclopenta[a]phenanthren-3-ol] | Increased lens clarity and reduced cataract | increased clarity and reduced cataract
2 | C[C@H](CCCC(C)(C)O)[C@H]1CC[C@@]2(C)C3=C(CC[C@]12C)[C@@]1(C)CC[C@H](O)C(C)(C)[C@@H]1CC3 [Compound 2, (3S,5R,10S,13R,14R,17R)-17-((R)-6-hydroxy-6-methylheptan-2-yl)-4,4,10,13,14-pentamethyl-2,3,4,5,6,7,10,11,12,13,14,15,16,17-tetradecahydro-1H-cyclopenta[a]phenanthren-3-ol] | Increased lens clarity and reduced cataract | 
